Values quoted from earlier work, collected in patent US6783772B1, “Pharmaceutical preparations containing alendronate sodium” (priority 2003, dated 2004).

How the values were obtained:
bone resorption [1] = details: postmenopausal women; 5, 20 and 40 mg daily oral for six weeks
bone resorption [2] = details: 40 mg once daily for six months

NCCCC(O)(P(=O)([O-])O)P(=O)(O)O.O.O.O.[Na+] [Alendronate sodium, (4-amino-1-hydroxybutylidene) bisphosphonic acid monosodium salt trihydrate]
biochemical changes (urinary calcium, urinary markers of bone collagen degradation) (bone resorption [1]): dose-dependent inhibition of bone resorption
serum alkaline phosphotase and urinary markers of bone collagen degradation (bone resorption [2]): highly significant decreases
serum calcium phosphate (bone resorption [2]; clinical trials): generally mild, transient, decreases
